Assay results as given in paper PMC7147261, “Selective Antibacterial Activity and Lipid Membrane Interactions of Arginine-Rich Amphiphilic Peptides” (ACS Applied Bio Materials, 2020).
Ends that are not written are not given here.

What was measured:
[1] = previously reported; cited from earlier work
Method: The two “blocky” surfactant-like peptides […] and […] are both able to self-assemble in aqueous solution at concentrations in excess of critical values, obtained from fluorescence probe assays. The cac = 0.3 wt % (≡ 3.2 mM) for […] is higher than that previously obtained for the compositional homologue peptide […], for which the cac = 2.3 mM.[16]

[2] = in vitro; assay type: cell-based, human; conditions: human
Method: (§1) The cytotoxicity of both R3F3 and R4F4 was examined. In vitro cell culture was conducted using 161Br (European Collection of Authenticated Cell Cultures, ECACC) cells, a human skin fibroblast cell line. Cells were cultured in EMEM (Eagle’s minimum essential medium), with 2 mM glutamine, enriched with 15% fetal bovine serum (FBS) and 1% nonessential amino acids (NEAA). Cells were maintained in a humidified atmosphere of 37 °C, 5% CO2.
(§2) Potential cytotoxicity effects were examined using the MTT (3-(4,5-dimethylthiazol-2-yl)-2,5-diphenyltetrazolium bromide) assay. The peptides were dissolved in complete media. Cells were seeded into a 96-well plate at 4 × 10^4 cells/mL and allowed to adhere for 24 h in 100 μL complete medium. After this, 100 μL of either complete media and/or peptide solution was added, to give either control solution, or solutions of peptide between the concentrations of 0.0625–4 mg/mL.
(§3) Cells were incubated for 67 h. After this, 20 μL MTT (5 mg/mL, in PBS) was added to each well plate and allowed to incubate for 5 h. After a further 5 h (72 h total), the solution was removed from the wells and replaced with 100 μL of DMSO per well, which dissolves the formazan crystals. Plates were incubated for 30 min, and then analyzed using a UV microplate reader (λ = 570 nm). Results are reported as a percentage cell viability compared to control (untreated) values, and fitted to a sigmoidal function using Origin Lab as a guide to the eye.
(§4) Figure S2. CD data for a) R3F3 and b) R4F4 with DPPG (concentrations indicated) .
(§5) Figure S3. Cytotoxicity profiles from MTT assays, where 161br Human fibroblasts were exposed to
(§6) (a) R3F3 and (b) R4F4 for 72 hours. Control solutions were prepared by incubating cells with complete
(§7) media. Results are reported as a percentage compared to the control solutions. Error bars are the
(§8) standard deviation of 3 biological replicates (with 3 technical replicates pe r assay). IC50 values
(§9) (vertical blue dashed lines) were calculated in Origin using sigmoidal fits to the viability data (dashed […]

[3] = system: 161br human skin fibroblasts; test: in vitro; assay type: cell-based; conditions: 72 h, 0.05 wt %
Method: as §1, §2, §3, §4, §5, §6, §7, §8, §9

Substance | cac of compositional homologue peptide [1] | IC50 at 72 h [2] | viability of human skin fibroblasts [3]
RFRFRFRF [[RF]4, previously studied oligopeptide of alternating RF motifs, compositional homologue of R4F4] | 0.34 mM |  | 
RFRFRF [previously studied alternating RF peptide, compositional homologue of R3F3] | 2.3 mM |  | 
RRRFFF [R3F3] |  | 4.31 mM | 77%
RRRRFFFF [R4F4] |  | 2.15 mM | 81%
